Assay results reported in patent US20250017914A1, “6-AZA-QUINOLINE DERIVATIVES AND RELATED USES” (Black Diamond Therapeutics, Inc., priority 2021, published 2025).

Target: T1, BaF3 BRAF-KIAA1549 fusion cells (Homo sapiens, UniProt P15056)
T1 construct: The BRAF-KIAA1549 fusion mutant was subcloned into pMXs-IRES-Blasticidin (RTV-016, Cell Biolabs, San Diego, CA); No tag given; Q9HCM3 (UPF0606 protein KIAA1549)
Assay: BaF3 BRAF-KIAA1549 fusion cell proliferation assay (CellTiterGlo, 96 hours)
Type: cell-based
Procedure: Retroviral Production: The BRAF-KIAA1549 fusion mutant was subcloned into pMXs-IRES-Blasticidin (RTV-016, Cell Biolabs, San Diego, CA). Retrovirus was produced by transfection of HEK 293T cells with the retroviral BRAF mutant expression vector pMXs-IRES-Blasticidin (RTV-016, Cell Biolabs), pCMV-Gag-Pol vector and pCMV-VSV-G-Envelope vector. Briefly, HEK 293T cells were plated in Poly-D-lysine coated 6-well plate (2.5×10^5 cells per well) and incubated overnight. The next day, retroviral plasmids (1 μg of BRAF-KIAA fusion mutant, 0.32 μg of pCMV-Gag-Pol and 0.165 μg pCMV-VSV-G) were mixed in 300 μL of Optimem (31985, Life Technologies). The mixture was incubated at room temperature for 5 minutes and then added to Optimem containing transfection reagent Lipofectamine (11668, Invitrogen) and incubated for 20 minutes. The mixture was then added dropwise to HEK 293T cells. The next day the medium was replaced with fresh culture medium and retrovirus was harvested at 24 hours.
Generation of BRAF-KIAA1549 fusion stable cell line: BaF3 cells were plated in V-bottom 96 well plate (COSTAR #3894) in 80 μL of RPMI/10% FBS and 0.01 ng/mL mouse IL-3, supplemented with 8 μg/mL polybrene (4×10^4 cells/well). Cells were transduced with 20 μL of BRAF-KIAA1549 fusion viral supernatant by centrifuging for 30 minutes at 1000 rpm. Cells were placed in a 37° C. incubator overnight. Next day 100 μL of RPMI/10% FBS and 0.01 ng/mL mouse IL-3 was added. After 24 hours, 100 μL of cells were transferred to a 24 well plate containing 900 μL of RPM/10% FBS and 15 μg/mL Blasticidin. Contents of the 24 well plate were sampled for cell viability via CellTiterGlo (Promega) over a 2-week period.
Assay for cell proliferation: BaF3 BRAF-KIAA1549 fusion cells were resuspended at 1.5×10^5 c/mL in RPMI containing 10% Heat Inactivated FBS, 1% L-glutamine and dispensed in duplicate (7×10^4 c/well) into 384 well plates. To determine the effect of compound on cell proliferation, BaF3 BRAF-KIAA1549 fusion cells were incubated for 96 hours in the presence of vehicle control (DMSO) or compound at varying concentrations. Inhibition of cell growth was determined by luminescent quantification (Envision by Perkin Elmer) of intracellular ATP content using CellTiterGlo (Promega), according to the protocol provided by the manufacturer. To determine the IC50 values, the vehicle-treated cells were normalized as viable cells and analyzed using the CDD Vault, Collaborative Drug Discovery, Burlingame, CA (the Levenberg-Marquardt algorithm; Levenberg, K., […]; Marquardt, D., 1963).
Tables A1 and A2 assign each compound a code for potency in the BaF3 BRAF-KIAA1549 fusion cell proliferation assay: A, B, C, or D. According to the code, A represents an IC50 value <20 nM; B represents an IC50 value ≥20 nM and <100 nM; C represents an IC50 value ≥100 nM and <500 nM; and D represents an IC50 value ≥500 nM.

T1 sequence (P15056 whole entry, change not shown, the tested form may be a part): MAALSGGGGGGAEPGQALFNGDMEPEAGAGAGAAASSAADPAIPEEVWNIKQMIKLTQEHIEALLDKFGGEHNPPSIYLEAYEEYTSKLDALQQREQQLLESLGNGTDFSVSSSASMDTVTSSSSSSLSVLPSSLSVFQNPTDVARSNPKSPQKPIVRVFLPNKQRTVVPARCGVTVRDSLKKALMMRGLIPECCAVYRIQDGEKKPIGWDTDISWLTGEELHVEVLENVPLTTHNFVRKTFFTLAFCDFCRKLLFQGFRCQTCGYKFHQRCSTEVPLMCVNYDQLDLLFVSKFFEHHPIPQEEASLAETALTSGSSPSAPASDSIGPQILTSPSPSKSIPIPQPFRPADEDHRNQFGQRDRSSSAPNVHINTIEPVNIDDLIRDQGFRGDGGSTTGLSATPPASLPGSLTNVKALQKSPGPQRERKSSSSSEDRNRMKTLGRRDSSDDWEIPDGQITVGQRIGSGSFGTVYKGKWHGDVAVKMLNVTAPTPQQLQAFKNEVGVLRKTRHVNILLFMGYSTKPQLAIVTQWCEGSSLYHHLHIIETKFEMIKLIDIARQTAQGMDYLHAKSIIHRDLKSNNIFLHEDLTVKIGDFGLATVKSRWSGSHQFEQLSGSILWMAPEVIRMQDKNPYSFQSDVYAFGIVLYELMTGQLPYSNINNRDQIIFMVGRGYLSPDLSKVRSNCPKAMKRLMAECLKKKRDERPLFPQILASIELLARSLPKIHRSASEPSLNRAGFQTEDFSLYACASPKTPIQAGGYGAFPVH

Compound | GI50 (Table A2) | GI50 (Table A1)
CNc1cc2ncc(-c3cc(NC(=O)c4n[nH]c5c4CCCC5(C)C)ccc3C)cc2cn1 [Compound 262, 7,7-dimethyl-N-(4-methyl-3-(7-(methylamino)-1,6-naphthyridin-3-yl)phenyl)-4,5,6,7-tetrahydro-1H-indazole-3-carboxamide] | 20 to 100 nM | 
CNc1cc2ncc(-c3cc(NC(=O)c4cc(C(F)(F)F)ccn4)cnc3C)cc2cn1 [Compound 20, N-(6-Methyl-5-(7-(methylamino)-1,6-naphthyridin-3-yl)pyridin-3-yl)-4-(trifluoromethyl)picolinamide] |  | < 20 nM
CNc1cc2ncc(-c3cc(NC(=O)c4noc5c4C[C@@H](C)CC5)ccc3C)cc2cn1 (single isomer, unassigned) [Compound 236] | 20 to 100 nM | 
CCC(C)c1ccnc(C(=O)Nc2cnc(C)c(-c3cnc4cc(NC)ncc4c3)c2)c1 (centres unmarked) [Compound 227, 4-(sec-butyl)-N-(6-methyl-5-(7-(methylamino)-1,6-naphthyridin-3-yl)pyridin-3-yl)picolinamide] | 20 to 100 nM | 
CNc1cc2ncc(-c3cc(C(=O)Nc4cccc(C(C)(C)C#N)c4)cnn3)cc2cn1 [Compound 196, N-(3-(2-cyanopropan-2-yl)phenyl)-6-(7-(methylamino)-1,6-naphthyridin-3-yl)pyridazine-4-carboxamide] | ≥ 500 nM | 
CNc1cc2ncc(-c3cc(NC(=O)c4csc5c4CCCC5)cnc3C)cc2cn1 [Compound 234, N-(6-methyl-5-(7-(methylamino)-1,6-naphthyridin-3-yl)pyridin-3-yl)-4,5,6,7-tetrahydrobenzo[b]thiophene-3-carboxamide] | 20 to 100 nM | 
CNc1cc2ncc(-c3cc(NC(=O)CN4CCC[C@H](C(F)(F)F)C4)ccc3C)cc2cn1 [Compound 63, (S)—N-(4-Methyl-3-(7-(methylamino)-1,6-naphthyridin-3-yl)phenyl)-2-(3-(trifluoromethyl)piperidin-1-yl)acetamide] |  | 20 to 100 nM
CNc1cc2ncc(-c3cc(NC(=O)c4cccc5c4CCC[C@H]5O)cnc3C)cc2cn1 (single isomer, unassigned) [Compound 208] | ≥ 500 nM | 
CNc1cc2ncc(-c3cc(NC(=O)c4noc5c4CN(C(C)C)CC5)cnc3C)cc2cn1 [Compound 254, 5-isopropyl-N-(6-methyl-5-(7-(methylamino)-1,6-naphthyridin-3-yl)pyridin-3-yl)-4,5,6,7-tetrahydroisoxazolo[4,5-c]pyridine-3-carboxamide] | 100 to 500 nM | 
CNc1cc2ncc(-c3cc(NC(=O)c4cnc5n4CC(C(F)F)CC5)ccc3C)cc2cn1 (centres unmarked) [Compound 238, 6-(difluoromethyl)-N-(4-methyl-3-(7-(methylamino)-1,6-naphthyridin-3-yl)phenyl)-5,6,7,8-tetrahydroimidazo[1,2-a]pyridine-3-carboxamide] | 20 to 100 nM | 
CNc1cc2ncc(-c3cc(C(=O)Nc4cc(C(C)(C)C#N)ccn4)ccc3C)cc2cn1 [Compound 53, N-(4-(2-cyanopropan-2-yl)pyridin-2-yl)-4-methyl-3-(7-(methylamino)-1,6-naphthyridin-3-yl)benzamide] |  | 20 to 100 nM
CNc1cc2ncc(-c3cc(NC(=O)c4cc(C(C)(C)C#N)ccn4)c(F)cc3C)cc2cn1 [Compound 42, 4-(2-Cyanopropan-2-yl)-N-(2-fluoro-4-methyl-5-(7-(methylamino)-1,6-naphthyridin-3-yl)phenyl)picolinamide] |  | 20 to 100 nM
CNc1cc2ncc(-c3cc(NC(=O)c4cc(C(C)(C)C#N)ccn4)cnc3C)cc2cn1 [Compound 30, 4-(2-Cyanopropan-2-yl)-N-(6-methyl-5-(7-(methylamino)-1,6-naphthyridin-3-yl)pyridin-3-yl)picolinamide] |  | 20 to 100 nM
CNc1cc2ncc(-c3cc(NC(=O)c4n[nH]c5c4C[C@@H]4C[C@H]54)cnc3C)cc2cn1 [Compound 252, (4aS,5aS)—N-(6-methyl-5-(7-(methylamino)-1,6-naphthyridin-3-yl)pyridin-3-yl)-4,4a,5,5a-tetrahydro-1H-cyclopropa[4,5]cyclopenta[1,2-c]pyrazole-3-carboxamide] | 20 to 100 nM | 
CNc1cc2ncc(-c3cc(NC(=O)c4cc(C(C)(C)C#N)ccn4)cnn3)cc2cn1 [Compound 49, 4-(2-Cyanopropan-2-yl)-N-(6-(7-(methylamino)-1,6-naphthyridin-3-yl)pyridazin-4-yl)picolinamide] |  | < 20 nM
CNc1cc2ncc(-c3cc(NC(=O)c4ccnc(C(C)(C)C#N)c4)c(F)cc3C)cc2cn1 [Compound 217, 2-(2-cyanopropan-2-yl)-N-(2-fluoro-4-methyl-5-(7-(methylamino)-1,6-naphthyridin-3-yl)phenyl)isonicotinamide] | 20 to 100 nM | 
CNc1cc2ncc(-c3cc(NC(=O)c4cnn5c4CC(C)CC5)ccc3C)cc2cn1 (centres unmarked) [Compound 265, 5-methyl-N-(4-methyl-3-(7-(methylamino)-1,6-naphthyridin-3-yl)phenyl)-4,5,6,7-tetrahydropyrazolo[1,5-a]pyridine-3-carboxamide] | < 20 nM | 
CNc1cc2ncc(-c3cc(NC(=O)c4cnc5n4CC(C(F)(F)F)CC5)cnc3C)cc2cn1 (centres unmarked) [Compound 243] | 20 to 100 nM | 
CNc1cc2ncc(-c3cc(NC(=O)c4ccnc(C(C)(C)F)c4)ccc3C)cc2cn1 [Compound 10, 2-(2-Fluoropropan-2-yl)-N-(4-methyl-3-(7-(methylamino)-1,6-naphthyridin-3-yl)phenyl)isonicotinamide] |  | < 20 nM
CNc1cc2ncc(-c3cc(NC(=O)c4ccnc(C5CC(F)(F)C5)c4)ccc3C)cc2cn1 [Compound 17, 2-(3,3-Difluorocyclobutyl)-N-(4-methyl-3-(7-(methylamino)-1,6-naphthyridin-3-yl)phenyl)isonicotinamide] |  | < 20 nM
CNc1cc2ncc(-c3cc(NC(=O)c4cc(C(C)(C)F)ccn4)cnc3C)cc2cn1 [Compound 65, 4-(2-Fluoropropan-2-yl)-N-(6-methyl-5-(7-(methylamino)-1,6-naphthyridin-3-yl)pyridin-3-yl)picolinamide] |  | 20 to 100 nM
CNc1cc2ncc(-c3cc(NC(=O)c4ccnc(C(F)F)c4)ccc3C)cc2cn1 [Compound 8, 2-(Difluoromethyl)-N-(4-methyl-3-(7-(methylamino)-1,6-naphthyridin-3-yl)phenyl)isonicotinamide] |  | 20 to 100 nM
CNc1cc2ncc(-c3cc(NC(=O)c4cnc5n4C[C@H](C)CC5)cnc3C)cc2cn1 (single isomer, unassigned) [Compound 259] | 20 to 100 nM | 
CNc1cc2ncc(-c3cc(NC(=O)c4cnc5n4C[C@@H](C)CC5)cnc3C)cc2cn1 (single isomer, unassigned) [Compound 258] | 20 to 100 nM | 
CNc1cc2ncc(-c3cc(NC(=O)c4ccnc(C(C)(C)F)c4)cnc3C)cc2cn1 [Compound 24, 2-(2-Fluoropropan-2-yl)-N-(6-methyl-5-(7-(methylamino)-1,6-naphthyridin-3-yl)pyridin-3-yl)isonicotinamide] |  | < 20 nM
Cc1ncc(NC(=O)c2cc(C(F)(F)F)ccn2)cc1-c1ccc2c3c(ncc2c1)NC(=O)C3 [Compound 274, N-(6-methyl-5-(2-oxo-2,3-dihydro-1H-pyrrolo[2,3-c]isoquinolin-7-yl)pyridin-3-yl)-4-(trifluoromethyl)picolinamide] | < 20 nM | 
CNc1cc2ncc(-c3cc(NC(=O)c4cc(C(F)(F)F)c(C)cn4)cnc3C)cc2cn1 [Compound 25, 5-Methyl-N-(6-methyl-5-(7-(methylamino)-1,6-naphthyridin-3-yl)pyridin-3-yl)-4-(trifluoromethyl)picolinamide] |  | 20 to 100 nM
CNc1cc2ncc(-c3cc(NC(=O)c4cccc(N(C)C)c4)ccc3C)cc2cn1 [Compound 4, 3-(Dimethylamino)-N-(4-methyl-3-(7-(methylamino)-1,6-naphthyridin-3-yl)phenyl)benzamide] |  | < 20 nM
CNc1cc2ncc(-c3cc(NC(=O)c4cc(C(F)(F)F)c(OCCO)cn4)ccc3C)cc2cn1 [Compound 71, 5-(2-hydroxyethoxy)-N-(4-methyl-3-(7-(methylamino)-1,6-naphthyridin-3-yl)phenyl)-4-(trifluoromethyl)picolinamide] |  | 20 to 100 nM
